Experimental data from patent US12643912B2, “Macrocyclic compounds, a process for their preparation and pharmaceutical compositions containing them” (LES LABORATOIRES SERVIER, priority 2020, dated 2026).

These molecules were tested on Nrf2 (Keap1-NRF2 nuclear translocation) (assay: U2OS translocation assay (PathHunter U2OS Keap1-NRF2 Nuclear Translocation Cell Line)). Details: Homo sapiens, U2OS, 3 h, read-out: CELLULAR U2OS EC50 (nM), U2OS Keap1-NRF2 nuclear translocation cells, 3 h incubation, luminescence, normalized between 1% DMSO and 10 μM andrographolide.
Assay type: cell-based
Description: EXAMPLE 84: U2OS—TRANSLOCATION ASSAY
U2OS cell have been stably transduced using MMLV-derived retroviral vector, to overexpress Nrf2-Enzyme Donor fusion protein, and Acceptor Enzyme in the nucleus (PathHunter® U2OS Keap1-NRF2 Nuclear Translocation Cell Line, Ref.93-0821C3, DiscoverX).
PathHunter U2OS cells were grown in Minimum Essential Medium (MEM) (Ref.30-2003, ATCC), 10% FBS (Ref.P30-193306, PanBiotech), 500 μg/ml Geneticine, 250 μg/ml hygromycine, 0.25 μg/ml puromycine (10131-027, 10687-010 and Ref.A1113802 respectively, Life Technologies).
The night before experiment, cells were harvested using Tryple Xpress (Ref.126905, Bibco) for 5 min at 37° C., resuspended in Opti-MEM™ (Ref.31985-047, Gibco), 1% FBS (Ref.P30-193306, PanBiotech) and then plated into 384 wells plates (Ref.6007680, Perkin Elmer) at the density of 7 500 cells/well in 20 μl. Cell are stored over night at 37° C., 5% CO2 until used. Compounds in 100% DMSO (0.315 μl/well) were resuspended in 20 μl MEM, 1% FBS, 3.4% DMSO. Compounds and andrographolide (10 μM final concentration; Ref.365645-500MG, Aldrich)) as positive control, were dispensed on cell, 5 μl /well, and then incubated for 3 h at 37° C. and 5% CO2. After incubation, Path hunter reagents were dispensed on cells (12 μl /well, Ref.93-0001, DiscoverX) and incubated for 60 min at room temperature in the dark.
Then, luminescence signal was measured using multimodal reader (Pherastar, BMG Labtech). Data were normalized between 1% DMSO (basal signal) and 10 μM andrographolide (positive signal) and analyzed using Activity Base software.
Molecule `COc1ccc2cc1[C@H](C)N1Cc3cc(ccc3OS1(=O)=O)OCCCCn1nnc3c(C)c(ccc31)[C@@H]2CC(=O)O` [Example 28c, [(2S,8R)-4-Methoxy-2,31-dimethyl-27,27-dioxo-21,26-dioxa-27λ^6-thia-1,14,15,16-tetraazahexacyclo[20.5.3.1^3,70.1^9,130.0^12,160.0^25,29]dotriaconta-3(32),4,6,9(31),10,12,14,22,24,29-decaen-8-yl]acetic acid] has an EC50 of over 3160 nM. For `Cc1ccc2cc1CN1Cc3cc(ccc3OS1(=O)=O)OCCCCn1nnc3c(C)c(ccc31)[C@H]2CC(=O)Nc1cccnc1` [Example 80a, 2-[(8S)-4,31-Dimethyl-27,27-dioxo-21,26-dioxa-27λ^6-thia-1,14,15,16-tetraazahexacyclo[20.5.3.1^3,70.1^9,130.0^12,160.0^25,29]dotriaconta-3(32),4,6,9(31),10,12,14,22,24,29-decaen-8-yl]-N-(pyridin-3-yl)acetamide], the EC50 was 596 nM. In the case of `COc1ccc2cc1[C@H](C)N1Cc3cc(ccc3OS1(=O)=O)OCCCCCn1nnc3c(C)c(ccc31)[C@H]2CC(=O)O` [Example 31a, [(2S,8S)-4-methoxy-2,32-dimethyl-28,28-dioxo-22,27-dioxa-28λ^6-thia-1,14,15,16-tetraazahexacyclo[21.5.3.1^3,70.1^9,130.0^12,160.0^26,30]tritriaconta-3(33),4,6,9(32),10,12,14,23,25,30-decaen-8-yl]acetic acid], the EC50 is reported as 1430 nM. Work on `COc1ccc2cc1[C@@H](C)N1Cc3cc(ccc3OS1(=O)=O)OCCOCCn1nnc3c(C)c(ccc31)[C@H]2CC(=O)O` [Example 41a] yielded an EC50 of 716 nM. `COc1ccc2cc1[C@H](C)N1Cc3cc(ccc3OS1(=O)=O)OCCCCn1nnc3c(C)c(ccc31)[C@H]2CC(=O)O` [Example 28d, [(2S,8S)-4-methoxy-2,31-dimethyl-27,27-dioxo-21,26-dioxa-27λ^6-thia-1,14,15,16-tetraazahexacyclo[20.5.3.1^3,70.1^9,130.0^12,160.0^25,29]dotriaconta-3(32),4,6,9(31),10,12,14,22,24,29-decaen-8-yl]acetic acid] was tested, and the EC50 was 879 nM. `Cc1ccc2cc1CN1Cc3cc(ccc3OS1(=O)=O)OCCn1nnc3c(C)c(ccc31)C2CC(=O)O` (stereo not drawn) [Example 77a, [4,29-Dimethyl-25,25-dioxo-19,24-dioxa-25λ^6-thia-1,14,15,16-tetraazahexacyclo[18.5.3.1^3,70.1^9,130.0^12,160.0^23,27]triaconta-3(30),4,6,9(29),10,12,14,20,22,27-decaen-8-yl]acetic acid] was tested, and the EC50 was 1750 nM. `Cc1ccc2cc1CN1Cc3cc(ccc3OS1(=O)=O)CNC(=O)CCn1nnc3c(C)c(ccc31)C2CC(=O)O` (racemic) [Example 69, [4,31-Dimethyl-19,27,27-trioxo-26-oxa-27λ^6-thia-1,14,15,16,20-pentaazahexacyclo[20.5.3.1^3,70.1^9,130.0^12,160.0^25,29]dotriaconta-3(32),4,6,9(31),10,12,14,22,24,29-decaen-8-yl]acetic acid] showed an EC50 of over 3160 nM. With `COc1ccc2cc1CN1Cc3cc(ccc3OS1(=O)=O)OCCOCCn1nnc3c(C)c(ccc31)C2CC(=O)O` (stereo not drawn) [Example 59b, [4-Methoxy-32-methyl-28,28-dioxo-19,22,27-trioxa-28λ^6-thia-1,14,15,16-tetraazahexacyclo[21.5.3.1^3,70.1^9,130.0^12,160.0^26,30]tritriaconta-3(33),4,6,9(32),10,12,14,23,25,30-decaen-8-yl]acetic acid] the EC50 was 1760 nM. For `COc1ccc2cc1[C@@H](C)N1Cc3cc(ccc3OS1(=O)=O)OCCCCCn1nnc3c(C)c(ccc31)[C@H]2CC(=O)O` [Example 31b, [(2R,8S)-4-methoxy-2,32-dimethyl-28,28-dioxo-22,27-dioxa-28λ^6-thia-1,14,15,16-tetraazahexacyclo[21.5.3.1^3,70.1^9,130.0^12,160.0^26,30]tritriaconta-3(33),4,6,9(32),10,12,14,23,25,30-decaen-8-yl]acetic acid], the EC50 was 27.4 nM. With `COc1ccc2cc1[C@H](C)N1Cc3cc(ccc3OS1(=O)=O)OCCCCCn1nnc3c(C)c(ccc31)[C@@H]2CC(=O)O` [Example 31c, [(2S,8R)-4-methoxy-2,32-dimethyl-28,28-dioxo-22,27-dioxa-28λ^6-thia-1,14,15,16-tetraazahexacyclo[21.5.3.1^3,70.1^9,130.0^12,160.0^26,30]tritriaconta-3(33),4,6,9(32),10,12,14,23,25,30-decaen-8-yl]acetic acid] the EC50 was over 3160 nM. In the case of `Cc1ccc2cc1CN1Cc3cc(ccc3OS1(=O)=O)Oc1ccccc1NCCCn1nnc3c(C)c(ccc31)C2CC(=O)O` (stereo not drawn) [Example 71b, [4,37-Dimethyl-33,33-dioxo-27,32-dioxa-33λ^6-thia-1,14,15,16,20-pentaazaheptacyclo[26.5.3.1^3,70.1^9,130.0^12,160.0^21,260.0^31,35]octatriaconta-3(38),4,6,9(37),10,12,14,21,23,25,28,30,35-tridecaen-8-yl]acetic acid], the EC50 is reported as 570 nM.

Same assay, conditions: read-out: CELLULAR U2OS EC50; U2OS Keap1-NRF2 nuclear translocation cells, 3 h incubation, luminescence, normalized between 1% DMSO and 10 μM andrographolide
`Cc1ccc2cc1CN1Cc3cc(ccc3OS1(=O)=O)OCc1ccccc1SCCCn1nnc3c(C)c(ccc31)C2CC(=O)O` (single isomer, unassigned) [Example 67b, [4,38-Dimethyl-34,34-dioxo-28,33-dioxa-20,34λ^6-dithia-1,14,15,16-tetraazaheptacyclo[27.5.3.1^3,70.1^9,130.0^12,160.0^21,260.0^32,36]nonatriaconta-3(39),4,6,9(38),10,12,14,21,23,25,29,31,36-tridecaen-8-yl]acetic acid] was tested, and the EC50 was over 3160 nM. `Cc1ccc2cc1CN1Cc3c(ccc(c3Cl)OCCOCCn3nnc4c(C)c(ccc43)C2CC(=O)O)OS1(=O)=O` (single isomer, unassigned) [Example 76a, [31-Chloro-4,32-dimethyl-28,28-dioxo-19,22,27-trioxa-28λ^6-thia-1,14,15,16-tetraazahexacyclo[21.5.3.1^3,70.1^9,130.0^12,160.0^26,30]tritriaconta-3(33),4,6,9(32),10,12,14,23,25,30-decaen-8-yl]acetic acid] was tested, and the EC50 was 7.5 nM. In the case of `Cc1ccc2cc1CN1Cc3cc(ccc3OS1(=O)=O)OCCOCCn1nnc3c(C)c(ccc31)C2CC(=O)O` (single isomer, unassigned) [Example 78b, [4,32-Dimethyl-28,28-dioxo-19,22,27-trioxa-28λ^6-thia-1,14,15,16-tetraazahexacyclo[21.5.3.1^3,70.1^9,130.0^12,160.0^26,30]tritriaconta-3(33),4,6,9(32),10,12,14,23,25,30-decaen-8-yl]acetic acid], the EC50 is reported as 873 nM. `Cc1ccc2cc1CN1Cc3c(ccc(c3Cl)OCCOCCn3nnc4c(C)c(ccc43)C2CC(=O)O)OS1(=O)=O` (single isomer, unassigned) [Example 76b, [31-Chloro-4,32-dimethyl-28,28-dioxo-19,22,27-trioxa-28λ^6-thia-1,14,15,16-tetraazahexacyclo[21.5.3.1^3,70.1^9,130.0^12,160.0^26,30]tritriaconta-3(33),4,6,9(32),10,12,14,23,25,30-decaen-8-yl]acetic acid] gave an EC50 of 26.2 nM. `COc1cc2cc(c1C)CN1Cc3cc(ccc3OS1(=O)=O)OCCCCn1nnc3c(C)c(ccc31)C2CC(=O)O` (single isomer, unassigned) [Example 30a, [5-Methoxy-4,31-dimethyl-27,27-dioxo-21,26-dioxa-27λ^6-thia-1,14,15,16-tetraazahexacyclo[20.5.3.1^3,70.1^9,130.0^12,160.0^25,29]dotriaconta-3(32),4,6,9(31),10,12,14,22,24,29-decaen-8-yl]acetic acid] gave an EC50 of 555 nM. For `Cc1ccc2cc1CN1Cc3cc(ccc3OS1(=O)=O)Oc1ccccc1NCCn1nnc3c(C)c(ccc31)C2CC(=O)O` (single isomer, unassigned) [Example 70b, [4,36-Dimethyl-32,32-dioxo-26,31-dioxa-32λ^6-thia-1,14,15,16,19-pentaazaheptacyclo[25.5.3.1^3,70.1^9,130.0^12,160.0^20,250.0^30,34]heptatriaconta-3(37),4,6,9(36),10,12,14,20,22,24,27,29,34-tridecaen-8-yl]acetic acid], the EC50 was over 3160 nM. With `Cc1ccc2cc1CN1Cc3cc(ccc3OS1(=O)=O)OCCCCn1nnc3c(C)c(ccc31)C2C(C)(C)C(=O)Nc1cccnc1` (single isomer, unassigned) [Example 82a, 2-[4,31-Dimethyl-27,27-dioxo-21,26-dioxa-27λ^6-thia-1,14,15,16-tetraazahexacyclo[20.5.3.1^3,70.1^9,130.0^12,160.0^25,29]dotriaconta-3(32),4,6,9(31),10,12,14,22,24,29-decaen-8-yl]-2-methyl-N-(pyridin-3-yl)propanamide] the EC50 was 635 nM.
